The test system of assay [1] is HCT116 human colorectal carcinoma cells. Put plainly: CellTiter-Glo assay (cell viability). Particulars: HCT-116, 72 h, HCT116 cells, 3 days, CellTiter-Glo luminescence, read-out: CTG IC50. The assay is classed as cell-based. The procedure:
HCT116 human colorectal carcinoma cells were used in these experiments. HCT116 cells were obtained from ATCC. CellTiter-Glo® Luminescent Cell Viability Assay Reagent was obtained from Promega.
About 3,000 cells were seeded into 96-well plate with 100 μL of media (DMEM supplemented with 10% FBS, 100 units penicillin, and […] streptomycin per mL) the day before the experiment. For compound treatment, the master plate was prepared as follows: 100× compound stocks were prepared in a 96-well plate by 1 to 3 serial dilutions of 0.5 mM DMSO stocks. Each master plate contained serial dilution of 8 compounds, including the control compound E7820. […] of 100× compound stock was added to each well of the assay plate to give final concentrations of […]. Each concentration was tested in triplicate. After 3 days, cell viability was determined using CellTiter-Glo Luminescent Cell Viability Assay Reagent following the manufacturer's recommended protocol. Briefly, […] of CellTiter-Glo reagent was added to each well of the assay plate and the contents were mixed for 3 minutes at 600 rpm on a shaker (Thermomixer R). The plate was immediately placed in a plate reader (Synergy 2) and the luminescence signal (0.5 second per well integration time) was determined. IC50 values were calculated using Dotmatics software.

Assay [2] concerns the target T1, DCAF15 (DDA1-DDB1ΔB-DCAF15Δpro) (Homo sapiens, UniProt Q66K64, DEL276-383).
T1 construct: made in house; host or cells: Sf9 (Bac-to-Bac baculovirus)
Briefly: DCAF15 displacement assay (displacement FRET, probe PT7795). Type of assay: binding. Particulars: displacement of PT7795 (300 nM), compound 0.01 to 100 μM, 18 hours incubation; read-out: DCAF15 displacement IC50. The source says:
(§1) Proteins used for the assays were as follows: Human DDA1 (UniProt:Q9BW61), DDB1 (UniPro: Q16531), and DCAF15 (UniProt: Q66K64) coding sequences were cloned into pFastBac1 vectors and were co-expressed in Sf9 cells using Bac-to-Bac baculovirus expression system (Thermo Fisher Scientific). The expression construct for DCAF15 includes a N-terminal His6-tag to facilitate the purification.
DCAF15 Displacement Assay (Displacement FRET KD)
Synthesis of the probe PT7795 is described in the article.
Binding of PT7795 to DDA1-DDB1AB-DCAF15Δpro was measured by the FRET signal between europium-labeled anti-His antibody (AD0205, Perkin Elmer) that is associated with His-tagged DCAF15 and ALX647 moiety in PT7795. […] After equilibrating for 2-3 hours at 4° C., the plate was removed from the incubator, briefly spun, then read on a Spark 10 (Tecan) at the excitation/emission wavelength of 340 nm/615 nm and 340 nm/665 nm.
Binding of compounds in this disclosure to DCAF15 was measured in a competition by the displacement of PT7795. The concentration of PT7795 was kept at 300 nM while the concentration of a compound was varied from 0.01 to 100 μM. The incubation time was increased to 18 hours for enhanced signal to noise level.
F=Fmin+(Fmax−Fmin)/(1+10^(logIC50−log[Compound])^n) (Equation 2)
The Kds can then be calculated from IC50s using Equation 3 (Cheng-Prusoff equation).

The target of assay [3] is T2, DCAF15 RBM39 ternary complex (Homo sapiens, UniProt Q14498+Q66K64, DEL276-383).
T2 construct: Amino acids 150 to 331 of RBM39 were cloned into pGEX4T3; GST (from the pGEX4T3 vector, own knowledge) followed by a TEV cleavage site (N); made in house; host or cells: Sf9 baculovirus (DDB1ΔB/DCAF15); E. coli (RBM39 R1R2)
T2 sequence (Q66K64 with tags, fused parts or gaps DEL276-383): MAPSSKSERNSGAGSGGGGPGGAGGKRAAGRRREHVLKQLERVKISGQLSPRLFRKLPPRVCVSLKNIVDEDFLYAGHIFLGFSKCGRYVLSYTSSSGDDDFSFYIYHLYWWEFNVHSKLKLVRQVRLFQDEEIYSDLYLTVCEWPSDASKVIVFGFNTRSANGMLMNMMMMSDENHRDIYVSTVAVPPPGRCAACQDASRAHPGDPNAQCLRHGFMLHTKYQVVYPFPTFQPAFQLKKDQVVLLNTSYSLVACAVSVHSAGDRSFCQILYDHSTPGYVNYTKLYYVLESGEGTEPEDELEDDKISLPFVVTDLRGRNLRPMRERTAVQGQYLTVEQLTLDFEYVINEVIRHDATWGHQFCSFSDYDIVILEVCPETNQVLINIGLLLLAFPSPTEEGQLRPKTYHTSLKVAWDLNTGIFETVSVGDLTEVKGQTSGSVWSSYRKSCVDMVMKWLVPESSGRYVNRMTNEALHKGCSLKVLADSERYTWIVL
T2 sequence (Q14498 150-331, stated change not applied): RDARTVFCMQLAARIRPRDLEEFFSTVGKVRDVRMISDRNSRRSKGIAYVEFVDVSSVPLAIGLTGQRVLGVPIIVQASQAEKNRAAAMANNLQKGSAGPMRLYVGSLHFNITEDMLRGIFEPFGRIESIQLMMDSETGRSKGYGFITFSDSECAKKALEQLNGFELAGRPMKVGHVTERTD
Put plainly: DCAF15 RBM39 complex formation assay (FRET). Type of assay: biochemical. The following applies: FRET ratio, 20 nM DDB1DB/DCAF15, 50 nM RBM39 R1R2, overnight at 4° C.; read-out: DCAF15 RBM39 ternary complex EC50.
Description: as §1
DCAF15 RBM39 Complex Formation Assay
LANCE Eu-W1024 Anti-6×His and SureLight Allophycocyanin-anti-FLAG antibodies were purchased from Perkin Elmer. Human DDB1DB and His-tagged DCAF15 were co-expressed in baculovirus/sf9 system. […] The His-tagged DCAF15 contains six histidine residues directly preceding the DCAF15 sequence without any linker. An RBM39 fragment containing RRM1 and RRM2 was expressed in E. coli.
A compound of the present disclosure in DMSO (2 μL) was transferred to a 384-well assay plate. Compound was added in 14 points, 3-fold serial dilution (1 μM to 0.6 pico molar) in DMSO. […] FRET assay buffer (25 mM HEPES, pH 7.5, 100 mM NaCl, […], 0.5 mM TCEP, 0.005% Tween-20, 0.2 nM Eu-W1024 Anti-6×His, 50 nM SureLight Allophycocyanin-anti-FLAG, 20 nM DDB1DB/DCAF15, 50 nM RBM39 R1R2) was added and the resulting solution was incubated overnight at 4° C. […] Low signal controls containing no compound and high signal controls containing 10 mM indisulam were measured for each plate.
EC50 values were calculated using Dotmatics template equation for 4-parameter fit.
Results are expressed as % formation using the following equation: […]

Our source for the IC50 and EC50 values is patent publication US20240294548A1, “TRICYCLIC SULTAMS AND SULFAMIDES AS ANTITUMOR AGENTS” (PELOTON THERAPEUTICS INC., priority 2021, published 2024).

A word on the IC50: it is the point on the concentration scale where inhibition reaches its midpoint. Broadly, the EC50 is the concentration at which the effect is half-maximal.

Some results are limits rather than exact numbers.

Consider `CCCC1Cc2ccc3c(Cl)c[nH]c3c2NS1(=O)=O` (stereo not drawn) [Compound 10, 7-chloro-3-propyl-1,3,4,9-tetrahydro-[1,2]thiazino[4,3-g]indole 2,2-dioxide], for which the IC50 in assay [1] is 5000 nM; in assay [2], at least 100 µM. Besides, the EC50 in assay [3] came to 16.4 nM.

`O=S1(=O)Nc2c(cc(Cl)c3c(Cl)c[nH]c23)CN1Cc1ccccn1` [Compound 19, 6,7-dichloro-3-(pyridin-2-ylmethyl)-1,3,4,9-tetrahydro-[1,2,6]thiadiazino [4,3-g]indole 2,2-dioxide]: the IC50 in assay [1] amounted to 237 nM; in assay [2], 0.531 µM. The EC50 in assay [3] was determined as 1.6 nM.

Regarding `COCCN1Cc2cc(Cl)c3c(Cl)c[nH]c3c2NS1(=O)=O` [Compound 1, 6,7-dichloro-3-(2-methoxyethyl)-1,3,4,9-tetrahydro-[1,2,6] thiadiazino[4,3-g]indole 2,2-dioxide], the IC50 in assay [1] turned out to be 475 nM; in assay [2] it was 3.16 µM. Further, in assay [3], the EC50 was found to be 5.5 nM.

For `O=S1(=O)NCc2cc(Cl)c3c(Cl)c[nH]c3c2N1` [Compound 3, 6,7-dichloro-1,3,4,9-tetrahydro-[1,2,6]thiadiazino[4,3-g]indole 2,2-dioxide], the IC50 in assay [1] came to 1430 nM; in assay [2], 27.8 µM. For the same compound, the EC50 in assay [3] came to 8.1 nM.

As to `O=S1(=O)Nc2c(cc(Cl)c3c(Cl)c[nH]c23)CN1Cc1ccccc1` [Compound 6, 3-benzyl-6,7-dichloro-1,3,4,9-tetrahydro-[1,2,6]thiadiazino[4,3-g]indole 2,2-dioxide], the IC50 in assay [1] amounted to 608 nM; in assay [2], 5.26 µM. Further, the EC50 in assay [3] worked out at 3.1 nM.

For the compound `CC(=O)NCCN1Cc2cc(Cl)c3c(Cl)c[nH]c3c2NS1(=O)=O` [Compound 40, N-(2-(6,7-dichloro-2,2-dioxido-4,9-dihydro-[1,2,6]thiadiazino[4,3-g]indol-3(1H)-yl)ethyl) acetamide], the IC50 in assay [1] was 537 nM; in assay [2], 1.56 µM. Moreover, the EC50 in assay [3] was found to be 1.6 nM.

Take `COCCC1Cc2cc(Cl)c3c(Cl)c[nH]c3c2NS1(=O)=O` (racemic) [Compound 22, 6,7-dichloro-3-(2-methoxyethyl)-1,3,4,9-tetrahydro-[1,2]thiazino[4,3-g]indole 2,2-dioxide]: the half-maximal inhibitory concentration (IC50) in assay [1] came out at 234 nM; in assay [2], 12.3 µM. Further, the EC50 in assay [3] turned out to be 0.7 nM.

Take `O=S1(=O)Nc2c(cc(Cl)c3c(Cl)c[nH]c23)CN1Cc1ccc(F)cc1` [Compound 69, 6,7-dichloro-3-(4-fluorobenzyl)-1,3,4,9-tetrahydro-[1,2,6] thiadiazino[4,3-g]indole 2,2-dioxide]: the IC50 in assay [1] came to 1200 nM; in assay [2] it was 7.56 µM. In addition, the concentration giving a half-maximal response (EC50) in assay [3] worked out at 3.9 nM.

In the case of `Nc1cccc(CN2Cc3cc(Cl)c4c(Cl)c[nH]c4c3NS2(=O)=O)c1` [Compound 76, 3-(3-aminobenzyl)-6,7-dichloro-1,3,4,9-tetrahydro-[1,2,6] thiadiazino[4,3-g]indole 2,2-dioxide], the IC50 in assay [1] was 254 nM; in assay [2] it was 0.569 µM. The EC50 in assay [3] came to 1.2 nM.

As for `N#Cc1ccc(CN2Cc3cc(Cl)c4c(Cl)c[nH]c4c3NS2(=O)=O)cc1` [Compound 50, 4-((6,7-dichloro-2,2-dioxido-4,9-dihydro-[1,2,6]thiadiazino[4,3-g]indol-3(1H)-yl)methyl) benzonitrile], the IC50 was found to be 881 nM in assay [1] and 5.71 µM in assay [2]. The EC50 in assay [3] amounted to 1.1 nM.

In the case of `O=S1(=O)Nc2c(cc(Cl)c3c(Cl)c[nH]c23)CN1Cc1cncc(Cl)c1` [Compound 56, 6,7-dichloro-3-((5-chloropyridin-3-yl)methyl)-1,3,4,9-tetrahydro-[1,2,6] thiadiazino[4,3-g]indole 2,2-dioxide], the half-maximal inhibitory concentration (IC50) in assay [1] worked out at 184 nM; in assay [2], 1.44 µM. Moreover, the half-maximal effective concentration (EC50) in assay [3] was determined as 2.6 nM.

In the case of `O=S1(=O)Nc2c(cc(Cl)c3c(Cl)c[nH]c23)CN1Cc1ccncn1` [Compound 52, 6,7-dichloro-3-(pyrimidin-4-ylmethyl)-1,3,4,9-tetrahydro-[1,2,6] thiadiazino[4,3-g]indole 2,2-dioxide], the results for the IC50 in assay [1] and in assay [2] were 93.7 nM and 0.58 µM, respectively. Besides, the EC50 in assay [3] amounted to 0.6 nM.

Turning to `O=S1(=O)CCc2cc(Cl)c3c(Cl)c[nH]c3c2N1` [Compound 5, 6,7-dichloro-1,3,4,9-tetrahydro-[1,2]thiazino[4,3-g]indole 2,2-dioxide], the half-maximal inhibitory concentration (IC50) in assay [1] was 789 nM; in assay [2], 20 µM. Moreover, in assay [3], the concentration giving a half-maximal response (EC50) was 11 nM.

As for `CN(C)CCN1Cc2cc(Cl)c3c(Cl)c[nH]c3c2NS1(=O)=O` [Compound 41, 6,7-dichloro-3-(2-(dimethylamino)ethyl)-1,3,4,9-tetrahydro-[1,2,6] thiadiazino[4,3-g]indole 2,2-dioxide], the figures for the IC50 in assay [1] and in assay [2] were 183 nM and 17.5 µM, respectively. The EC50 in assay [3] was found to be 10.6 nM.

As for `O=S1(=O)Nc2c(cc(Cl)c3c(Cl)c[nH]c23)CN1Cc1ccnc(Cl)c1` [Compound 63, 6,7-dichloro-3-((2-chloropyridin-4-yl)methyl)-1,3,4,9-tetrahydro-[1,2,6] thiadiazino[4,3-g]indole 2,2-dioxide], the results for the IC50 in assay [1] and in assay [2] were 351 nM and 0.328 µM, respectively. Also, the EC50 in assay [3] is 1 nM.

In the case of `Cc1nnc(CN2Cc3cc(Cl)c4c(Cl)c[nH]c4c3NS2(=O)=O)o1` [Compound 36, 6,7-dichloro-3-((5-methyl-1,3,4-oxadiazol-2-yl)methyl)-1,3,4,9-tetrahydro-[1,2,6] thiadiazino[4,3-g]indole 2,2-dioxide], the figures for the IC50 in assay [1] and in assay [2] were 236 nM and 0.963 µM, respectively. For the same compound, the EC50 in assay [3] came to 2.1 nM.

Regarding `Cn1cc(CN2Cc3cc(Cl)c4c(Cl)c[nH]c4c3NS2(=O)=O)cn1` [Compound 43, 6,7-dichloro-3-((1-methyl-1H-pyrazol-4-yl)methyl)-1,3,4,9-tetrahydro-[1,2,6] thiadiazino[4,3-g]indole 2,2-dioxide], the IC50 stood at 246 nM in assay [1] and 1.05 µM in assay [2]. Also, the EC50 in assay [3] turned out to be 2.7 nM.

For `COCCN1Cc2cc(Cl)c3cc[nH]c3c2NS1(=O)=O` [Compound 2, 6-chloro-3-(2-methoxyethyl)-1,3,4,9-tetrahydro-[1,2,6] thiadiazino[4,3-g]indole 2,2-dioxide], the results for the half-inhibitory concentration (IC50) in assay [1] and in assay [2] were 2230 nM and 51.8 µM, respectively. Further, the EC50 in assay [3] was 65.8 nM.

On to `COCCCN1Cc2cc(Cl)c3c(Cl)c[nH]c3c2NS1(=O)=O` [Compound 68, 6,7-dichloro-3-(3-methoxypropyl)-1,3,4,9-tetrahydro-[1,2,6] thiadiazino[4,3-g]indole 2,2-dioxide], for which the concentration for half-maximal inhibition (IC50) was 205 nM in assay [1] and 0.63 µM in assay [2]. The EC50 in assay [3] was determined as 2.3 nM.
